Laboratory results reported in ChEMBL document CHEMBL1275482, “Point mutation in the group B streptococcal pbp2x gene conferring decreased susceptibility to beta-lactam antibiotics” (2008).
Values after ≈ are worked out from the molar mass of the structure shown.

Assays:
[1] = system: Streptococcus sp. 'group B'; assay: Antimicrobial activity against group B Streptococcus sp. 'group B' isolate 4214-03 by broth dilution method; assay type: functional
[2] = system: Streptococcus sp. 'group B'; assay: Antimicrobial activity against group B Streptococcus sp. 'group B' serotype IA isolate 3047-05 by broth dilution method; assay type: functional
[3] = system: Streptococcus sp. 'group B'; assay: Antimicrobial activity against group B Streptococcus sp. 'group B' serotype III isolate 3444-99 by broth dilution method; assay type: functional
[4] = system: Streptococcus sp. 'group B'; assay: Antimicrobial activity against group B Streptococcus sp. 'group B' serotype IA isolate 6649-05 by broth dilution method; assay type: functional
[5] = system: Streptococcus sp. 'group B'; assay: Antimicrobial activity against group B Streptococcus sp. 'group B' serotype V isolate 9171-03 by broth dilution method; assay type: functional
[6] = system: Streptococcus sp. 'group B'; assay: Antimicrobial activity against group B Streptococcus sp. 'group B' serotype III isolate 8607 with chromosomal pbp2x(Q557E) replaced by wild-type pbp2x through allelic exchange by broth dilution method
[7] = system: Streptococcus sp. 'group B'; assay: Antimicrobial activity against group B Streptococcus sp. 'group B' serotype III isolate 8607-03 expressing pbp2x Q557E mutant and harboring empty vector by broth dilution method; assay type: functional
[8] = system: Streptococcus sp. 'group B'; assay: Antimicrobial activity against group B Streptococcus sp. 'group B' serotype IA isolate 7490-03 by broth dilution method; assay type: functional
[9] = system: Streptococcus sp. 'group B'; assay: Antimicrobial activity against group B Streptococcus sp. 'group B' serotype V isolate 4857-03 by broth dilution method; assay type: functional
[10] = system: Streptococcus sp. 'group B'; assay: Antimicrobial activity against group B Streptococcus sp. 'group B' isolate 6149-03 by broth dilution method; assay type: functional
[11] = system: Streptococcus sp. 'group B'; assay: Antimicrobial activity against group B Streptococcus sp. 'group B' serotype IV isolate 3454-03 by broth dilution method; assay type: functional
[12] = system: Streptococcus sp. 'group B'; assay: Antimicrobial activity against group B Streptococcus sp. 'group B' serotype IB isolate 5436-03 by broth dilution method; assay type: functional
[13] = system: Streptococcus sp. 'group B'; assay: Antimicrobial activity against group B Streptococcus sp. 'group B' serotype IA isolate 5662-05 by broth dilution method; assay type: functional
[14] = system: Streptococcus sp. 'group B'; assay: Antimicrobial activity against group B Streptococcus sp. 'group B' serotype III isolate 8607-03 expressing pbp2x Q557E mutant and multilocus sequence type ST19 by broth dilution method; assay type: functional
[15] = system: Streptococcus sp. 'group B'; assay: Antimicrobial activity against group B Streptococcus sp. 'group B' serotype II isolate 3776-04 by broth dilution method; assay type: functional
[16] = system: Streptococcus sp. 'group B'; assay: Antimicrobial activity against group B Streptococcus sp. 'group B' serotype II isolate 9051-04 by broth dilution method; assay type: functional
[17] = system: Streptococcus sp. 'group B'; assay: Antimicrobial activity against group B Streptococcus sp. 'group B' serotype III isolate 7037-99 by broth dilution method; assay type: functional
[18] = system: Streptococcus sp. 'group B'; assay: Antimicrobial activity against group B Streptococcus sp. 'group B' serotype V isolate 5677-04 by broth dilution method; assay type: functional
[19] = system: Streptococcus sp. 'group B'; assay: Antimicrobial activity against group B Streptococcus sp. 'group B' serotype III isolate 3789-04 expressing pbp2x Q557E mutant and multilocus sequence type ST19 by broth dilution method; assay type: functional
[20] = system: Streptococcus sp. 'group B'; assay: Antimicrobial activity against group B Streptococcus sp. 'group B' isolate 7368-04 by broth dilution method; assay type: functional
[21] = system: Streptococcus sp. 'group B'; assay: Antimicrobial activity against group B Streptococcus sp. 'group B' serotype V isolate 3386-05 by broth dilution method; assay type: functional
[22] = system: Streptococcus sp. 'group B'; assay: Antimicrobial activity against group B Streptococcus sp. 'group B' serotype III isolate 8607-03 expressing pbp2x Q557E mutant and harboring plasmid expressing wild-type pbp2x by broth dilution method; assay type: functional
[23] = system: Streptococcus sp. 'group B'; assay: Antimicrobial activity against group B Streptococcus sp. 'group B' serotype IA isolate 9012-04 by broth dilution method; assay type: functional
[24] = system: Streptococcus sp. 'group B'; assay: Antimicrobial activity against group B Streptococcus sp. 'group B' serotype III isolate 7507-03 expressing pbp2x Q557E mutant and multilocus sequence type ST19 by broth dilution method; assay type: functional
[25] = system: Streptococcus sp. 'group B'; assay: Antimicrobial activity against group B Streptococcus sp. 'group B' serotype III isolate 6138-03 expressing pbp2x Q557E mutant and multilocus sequence type ST19 by broth dilution method; assay type: functional

Compound | MIC [1] | MIC [2] | MIC [3] | MIC [5] | MIC [6] | MIC [7] | MIC [8] | MIC [9] | MIC [10] | MIC [11] | MIC [12] | MIC [13] | MIC [14] | MIC [15] | MIC [16] | MIC [17] | MIC [18] | MIC [19] | MIC [20] | MIC [22] | also measured
CC1(C)S[C@@H]2[C@H](NC(=O)Cc3ccccc3)C(=O)N2[C@H]1C(=O)O [PENICILLIN G] | 0.12 µg/mL (≈ 0.359 µM) | 0.06 µg/mL (≈ 0.179 µM) | 0.06 µg/mL (≈ 0.179 µM) | 0.06 µg/mL (≈ 0.179 µM) | 0.015 µg/mL (≈ 0.0449 µM) | 0.12 µg/mL (≈ 0.359 µM) | 0.06 µg/mL (≈ 0.179 µM) | 0.12 µg/mL (≈ 0.359 µM) | 0.06 µg/mL (≈ 0.179 µM) | 0.12 µg/mL (≈ 0.359 µM) | 0.03 µg/mL (≈ 0.0897 µM) | 0.06 µg/mL (≈ 0.179 µM) | 0.12 µg/mL (≈ 0.359 µM) | 0.12 µg/mL (≈ 0.359 µM) | 0.06 µg/mL (≈ 0.179 µM) | 0.06 µg/mL (≈ 0.179 µM) | 0.12 µg/mL (≈ 0.359 µM) | 0.12 µg/mL (≈ 0.359 µM) | 0.12 µg/mL (≈ 0.359 µM) | 0.015 µg/mL (≈ 0.0449 µM) | MIC [4]: 0.12 µg/mL (≈ 0.359 µM); MIC [21]: 0.03 µg/mL (≈ 0.0897 µM); MIC [23]: 0.06 µg/mL (≈ 0.179 µM); MIC [24]: 0.12 µg/mL (≈ 0.359 µM); MIC [25]: 0.12 µg/mL (≈ 0.359 µM)
Cc1nnc(SCC2=C(C(=O)O)N3C(=O)[C@@H](NC(=O)Cn4cnnn4)[C@H]3SC2)s1 [CEFAZOLIN] | 0.5 µg/mL (≈ 1.1 µM) | 0.25 µg/mL (≈ 0.55 µM) | 0.25 µg/mL (≈ 0.55 µM) | 0.25 µg/mL (≈ 0.55 µM) | 2 µg/mL (≈ 4.4 µM) | 16 µg/mL (≈ 35.2 µM) | 0.25 µg/mL (≈ 0.55 µM) | 0.5 µg/mL (≈ 1.1 µM) | 0.25 µg/mL (≈ 0.55 µM) | 0.5 µg/mL (≈ 1.1 µM) | 1 µg/mL (≈ 2.2 µM) | 0.25 µg/mL (≈ 0.55 µM) | 0.5 µg/mL (≈ 1.1 µM) | 0.25 µg/mL (≈ 0.55 µM) | 0.25 µg/mL (≈ 0.55 µM) | 0.25 µg/mL (≈ 0.55 µM) | 1 µg/mL (≈ 2.2 µM) | 1 µg/mL (≈ 2.2 µM) | 0.5 µg/mL (≈ 1.1 µM) | 2 µg/mL (≈ 4.4 µM) | MIC [4]: 0.5 µg/mL (≈ 1.1 µM); MIC [21]: 0.12 µg/mL (≈ 0.264 µM); MIC [23]: 0.25 µg/mL (≈ 0.55 µM); MIC [24]: 0.5 µg/mL (≈ 1.1 µM); MIC [25]: 0.5 µg/mL (≈ 1.1 µM)
CO[C@@]1(NC(=O)Cc2cccs2)C(=O)N2C(C(=O)O)=C(COC(N)=O)CS[C@@H]21 [CEFOXITIN] | 4 µg/mL (≈ 9.36 µM) | 8 µg/mL (≈ 18.7 µM) | 8 µg/mL (≈ 18.7 µM) | 4 µg/mL (≈ 9.36 µM) | 2 µg/mL (≈ 4.68 µM) | 16 µg/mL (≈ 37.4 µM) | 2 µg/mL (≈ 4.68 µM) | 4 µg/mL (≈ 9.36 µM) | 8 µg/mL (≈ 18.7 µM) | 8 µg/mL (≈ 18.7 µM) | 16 µg/mL (≈ 37.4 µM) | 8 µg/mL (≈ 18.7 µM) | 16 µg/mL (≈ 37.4 µM) | 8 µg/mL (≈ 18.7 µM) | 8 µg/mL (≈ 18.7 µM) | 8 µg/mL (≈ 18.7 µM) | 16 µg/mL (≈ 37.4 µM) | 16 µg/mL (≈ 37.4 µM) | 4 µg/mL (≈ 9.36 µM) | 2 µg/mL (≈ 4.68 µM) | MIC [4]: 4 µg/mL (≈ 9.36 µM); MIC [21]: 16 µg/mL (≈ 37.4 µM); MIC [23]: 16 µg/mL (≈ 37.4 µM); MIC [24]: 16 µg/mL (≈ 37.4 µM); MIC [25]: 16 µg/mL (≈ 37.4 µM)
CC1(C)S[C@@H]2[C@H](NC(=O)[C@H](N)c3ccccc3)C(=O)N2[C@H]1C(=O)O [AMPICILLIN] | 0.25 µg/mL (≈ 0.715 µM) | 0.12 µg/mL (≈ 0.343 µM) | 0.12 µg/mL (≈ 0.343 µM) | 0.12 µg/mL (≈ 0.343 µM) | 0.06 µg/mL (≈ 0.172 µM) | 0.06 µg/mL (≈ 0.172 µM) | 0.12 µg/mL (≈ 0.343 µM) | 0.25 µg/mL (≈ 0.715 µM) | 0.12 µg/mL (≈ 0.343 µM) | 0.25 µg/mL (≈ 0.715 µM) | 0.06 µg/mL (≈ 0.172 µM) | 0.12 µg/mL (≈ 0.343 µM) | 0.06 µg/mL (≈ 0.172 µM) | 0.25 µg/mL (≈ 0.715 µM) | 0.12 µg/mL (≈ 0.343 µM) | 0.12 µg/mL (≈ 0.343 µM) | 0.25 µg/mL (≈ 0.715 µM) | 0.12 µg/mL (≈ 0.343 µM) | 0.12 µg/mL (≈ 0.343 µM) | 0.06 µg/mL (≈ 0.172 µM) | MIC [4]: 0.25 µg/mL (≈ 0.715 µM); MIC [21]: 0.06 µg/mL (≈ 0.172 µM); MIC [23]: 0.06 µg/mL (≈ 0.172 µM); MIC [24]: 0.12 µg/mL (≈ 0.343 µM); MIC [25]: 0.06 µg/mL (≈ 0.172 µM)
CO/N=C(\C(=O)N[C@@H]1C(=O)N2C(C(=O)O)=C(COC(N)=O)CS[C@H]12)c1ccco1 [CEFUROXIME] | 0.12 µg/mL (≈ 0.283 µM) | 0.06 µg/mL (≈ 0.141 µM) | 0.06 µg/mL (≈ 0.141 µM) | 0.06 µg/mL (≈ 0.141 µM) | 0.06 µg/mL (≈ 0.141 µM) | 0.5 µg/mL (≈ 1.18 µM) | 0.06 µg/mL (≈ 0.141 µM) | 0.06 µg/mL (≈ 0.141 µM) | 0.06 µg/mL (≈ 0.141 µM) | 0.06 µg/mL (≈ 0.141 µM) | 0.25 µg/mL (≈ 0.589 µM) | 0.03 µg/mL (≈ 0.0707 µM) | 0.12 µg/mL (≈ 0.283 µM) | 0.12 µg/mL (≈ 0.283 µM) | 0.06 µg/mL (≈ 0.141 µM) | 0.06 µg/mL (≈ 0.141 µM) | 0.12 µg/mL (≈ 0.283 µM) | 0.12 µg/mL (≈ 0.283 µM) | 0.06 µg/mL (≈ 0.141 µM) | 0.06 µg/mL (≈ 0.141 µM) | MIC [23]: 0.06 µg/mL (≈ 0.141 µM); MIC [24]: 0.12 µg/mL (≈ 0.283 µM); MIC [25]: 0.25 µg/mL (≈ 0.589 µM)
CO/N=C(\C(=O)N[C@@H]1C(=O)N2C(C(=O)O)=C(COC(C)=O)CS[C@H]12)c1csc(N)n1 [CEFOTAXIME] | 0.12 µg/mL (≈ 0.263 µM) | 0.06 µg/mL (≈ 0.132 µM) | 0.06 µg/mL (≈ 0.132 µM) | 0.12 µg/mL (≈ 0.263 µM) | 0.03 µg/mL (≈ 0.0659 µM) | 0.25 µg/mL (≈ 0.549 µM) | 0.12 µg/mL (≈ 0.263 µM) | 0.06 µg/mL (≈ 0.132 µM) | 0.06 µg/mL (≈ 0.132 µM) | 0.25 µg/mL (≈ 0.549 µM) | 0.25 µg/mL (≈ 0.549 µM) | 0.06 µg/mL (≈ 0.132 µM) | 0.25 µg/mL (≈ 0.549 µM) | 0.12 µg/mL (≈ 0.263 µM) | 0.06 µg/mL (≈ 0.132 µM) | 0.12 µg/mL (≈ 0.263 µM) | 0.12 µg/mL (≈ 0.263 µM) | 0.25 µg/mL (≈ 0.549 µM) | 0.06 µg/mL (≈ 0.132 µM) | 0.015 µg/mL (≈ 0.0329 µM) | MIC [4]: 0.12 µg/mL (≈ 0.263 µM); MIC [21]: 0.06 µg/mL (≈ 0.132 µM); MIC [23]: 0.06 µg/mL (≈ 0.132 µM); MIC [24]: 0.12 µg/mL (≈ 0.263 µM); MIC [25]: 0.25 µg/mL (≈ 0.549 µM)
